Measured values as given in patent US20240156790A1, “COMPOUNDS, COMPOSITIONS, AND METHODS FOR MODULATING FERROPTOSIS AND TREATING EXCITOTOXIC DISORDERS” (THE TRUSTEES OF COLUMBIA UNIVERSITY IN THE CITY OF NEW YORK, priority 2018, published 2024).
Entries after “also recorded” stand apart in the source; their conditions may differ. Where two headings read alike, the source gives them in different places.

Columns and labels:
[1] = test system: renal tubular ferroptosis; assay: Renal tubular ferroptosis model triggered by ferric nitrilotriacetate (Fe-NTA); format: in vivo, Sprague-Dawley rat
Procedure: Fe(NO3)3·12H2O (Wako, Osaka, Japan) and nitrilotriacetic acid disodium salt (Tokyo Chemical Industry, Tokyo, Japan) were dissolved in deionized water to generate 300 mM and 600 mM solutions, respectively, which were mixed immediately before injections by a ratio of 1:2 (v/v) and then adjusted to pH 7.4 with sodium carbonate to make Fe-NTA solution. PHB4082 was dissolved in 5% DMSO/95% of 65% v/v of 25% w/v 2-hydroxypropyl-β-cyclodextrin (Cayman Chemical) dissolved in 20% EtOH, 30% v/v Poly(ethylene glycol)-400 (Sigma Aldrich 202398), 5% v/v Tween 80 (Fluka 59924) to generate 2 mg/mL solution. The same formulation without PHB4082 was used as vehicle control. For both the solutions ultrasonic disruptor was applied to accelerate the dissolution and they are stored at −20° C. up to one week before injections.
Male wild-type Sprague-Dawley rat (CLEA Japan, Tokyo; n=6 for vehicle control, n=7 for PHB4082 pretreatment) at 4-6 weeks of age were fasted for 12 h prior to intraperitoneal administration of 2 mg/ml PHB4082 solution as pretreatment or with the formulation without PHB4082 as vehicle control. Two hours later all the rats were followed by IP injection of Fe-NTA with a dose of 10 mg iron/kg. The rats were euthanized 24 h after Fe-NTA injection. Fresh kidney tissues were excised and were either fixed in 10% phosphate-buffered formalin or preserved at −80° C. for subsequent analysis. The animal experiment committee of Nagoya University Graduate School of Medicine approved the animal experiments.
Immunostainings were performed by BOND MAX/III (Leica, Wetzlar, Germany) with BOND Polymer Refine Detection (ds9800; Leica) as described. Primary antibodies applied were listed as: anti-4-hydroxy-2-nonenal (HNE) modified proteins antibody (anit-HNEJ-1, in house), anti-transferrin receptor antibody (13-6800, Invitrogen). Quantitation of renal tubular ferroptosis was performed by measuring the necrotized cortical area after H&E staining by identifying the area of necrotized tubules with loss of nuclei. ImageJ was used for quantification of % necrosis area with randomly selected microscopic areas (×20, objective lens; n=9).
We evaluated the ferroptosis protection effect of PHB4082 in a renal tubular ferroptosis model. This model was previously established by Toyokuni lab (Kong et al. 2022; Toyokuni et al. 2022; Akatsuka et al. 2012). A Fenton-reaction based renal carcinogenesis in this model results from repeated intraperitoneal injections of ferric nitrilotriacetate (Fe-NTA). This iron chelate could specifically induce proximal epithelial ferroptosis via single IP administration. […] We chose 24 h after Fe-NTA administration for evaluation of the effects of PHB4082 because this is the peak time for renal tubular necrosis.

[2] = Plasma stability, pig (Table 1); format: in vitro ADME
[3] = Human; value marked ^1, Hofmans et al., 2016; cited from earlier work
[4] = Microsomal stability, dog (Table 1); format: in vitro ADME; settings: Dog: Beagle
Procedure: Each compound (1 μM) is incubated with mouse plasma, for 4 hours at 37° C., with shaking at 100 rpm. The concentration of compound in the buffer and plasma chambers is determined using LC-MS/MS. Metabolism of each compound is predicted using Sites of Metabolism (Schrodinger Suite), which combines intrinsic reactivity analysis (Hammett-Taft) with induced fit docking against 2C9, 2D6 and 3A4. This approach identifies 90% of known metabolism sites and has a false positive rate of 17%. The in vitro metabolic stability of each compound in mouse liver microsomes is determined. Pooled mouse liver microsomes are prepared and stored at −80° C. until needed. Compound stability in liver microsomes is measured at 0, 15, 30, 45 and 60 minutes in duplicate, using LC-MS/MS analysis.

[5] = Mouse; value marked ^1, Hofmans et al., 2016; cited from earlier work
[6] = Microsomal stability, rat (Table 1); format: in vitro ADME; settings: liver microsomes; Rat: Sprague Dawley; read-out: Microsomal Stability t1/2 (converted)

SMILES	HNE adducts in proximal tubules (HNEJ-1 immunostaining) ([1]; 24 h after Fe-NTA)	TfR1 / TRF1/CD71 signals in proximal tubules ([1]; 24 h after Fe-NTA)	necrotized renal tubular area ([1]; 24 h after Fe-NTA)	survival 24 h after Fe-NTA administration ([1]; IP pretreatment 2 h before Fe-NTA 10 mg iron/kg)	Plasma Stability at six hours (% remaining) [2]	Microsomal Stability t1/2 [3]	Microsomal Stability, % remaining t = 120 [4]	Microsomal Stability t1/2 [5]	half-life [6]
Cc1noc(-c2ccc(NC3CCCCC3)c(NC3CCCCC3)c2)n1 [PHB4082, N1,N2-dicyclohexyl-4-(3-methyl-1,2,4-oxadiazol-5-yl)benzene-1,2-diamine]	less amounts of HNE adducts	low to moderate signals in the proximal tubules; also recorded: less signals for TRF1/CD71	dramatically reduced the necrotized renal tubular area	all of those with PHB4082 pretreatment survived 24 hrs	–	–	–	–	–
CCOC(=O)c1ccc(NC2CCCCC2)c(N)c1 [Fer-1, Ferrostatin-1, reference compound]	–	–	–	–	Pig: 100%	6.9 ± 0.2 min	49.5 ± 9.6%	1.9 ± 0.6 min	3 min
